Test results: BindingDB's records for doi:10.1021/acs.jmedchem.0c00766 (Istituto Italiano Di Tecnologia, 2020)

Target: Serine-protein kinase ATM (Homo sapiens, UniProt Q13315)
Test: Inhibition of ATM (unknown origin) assessed as ATM-dependent phosphorylation using GST-p53 ser15 as substrate

Chain of Serine-protein kinase ATM (Q13315 whole entry): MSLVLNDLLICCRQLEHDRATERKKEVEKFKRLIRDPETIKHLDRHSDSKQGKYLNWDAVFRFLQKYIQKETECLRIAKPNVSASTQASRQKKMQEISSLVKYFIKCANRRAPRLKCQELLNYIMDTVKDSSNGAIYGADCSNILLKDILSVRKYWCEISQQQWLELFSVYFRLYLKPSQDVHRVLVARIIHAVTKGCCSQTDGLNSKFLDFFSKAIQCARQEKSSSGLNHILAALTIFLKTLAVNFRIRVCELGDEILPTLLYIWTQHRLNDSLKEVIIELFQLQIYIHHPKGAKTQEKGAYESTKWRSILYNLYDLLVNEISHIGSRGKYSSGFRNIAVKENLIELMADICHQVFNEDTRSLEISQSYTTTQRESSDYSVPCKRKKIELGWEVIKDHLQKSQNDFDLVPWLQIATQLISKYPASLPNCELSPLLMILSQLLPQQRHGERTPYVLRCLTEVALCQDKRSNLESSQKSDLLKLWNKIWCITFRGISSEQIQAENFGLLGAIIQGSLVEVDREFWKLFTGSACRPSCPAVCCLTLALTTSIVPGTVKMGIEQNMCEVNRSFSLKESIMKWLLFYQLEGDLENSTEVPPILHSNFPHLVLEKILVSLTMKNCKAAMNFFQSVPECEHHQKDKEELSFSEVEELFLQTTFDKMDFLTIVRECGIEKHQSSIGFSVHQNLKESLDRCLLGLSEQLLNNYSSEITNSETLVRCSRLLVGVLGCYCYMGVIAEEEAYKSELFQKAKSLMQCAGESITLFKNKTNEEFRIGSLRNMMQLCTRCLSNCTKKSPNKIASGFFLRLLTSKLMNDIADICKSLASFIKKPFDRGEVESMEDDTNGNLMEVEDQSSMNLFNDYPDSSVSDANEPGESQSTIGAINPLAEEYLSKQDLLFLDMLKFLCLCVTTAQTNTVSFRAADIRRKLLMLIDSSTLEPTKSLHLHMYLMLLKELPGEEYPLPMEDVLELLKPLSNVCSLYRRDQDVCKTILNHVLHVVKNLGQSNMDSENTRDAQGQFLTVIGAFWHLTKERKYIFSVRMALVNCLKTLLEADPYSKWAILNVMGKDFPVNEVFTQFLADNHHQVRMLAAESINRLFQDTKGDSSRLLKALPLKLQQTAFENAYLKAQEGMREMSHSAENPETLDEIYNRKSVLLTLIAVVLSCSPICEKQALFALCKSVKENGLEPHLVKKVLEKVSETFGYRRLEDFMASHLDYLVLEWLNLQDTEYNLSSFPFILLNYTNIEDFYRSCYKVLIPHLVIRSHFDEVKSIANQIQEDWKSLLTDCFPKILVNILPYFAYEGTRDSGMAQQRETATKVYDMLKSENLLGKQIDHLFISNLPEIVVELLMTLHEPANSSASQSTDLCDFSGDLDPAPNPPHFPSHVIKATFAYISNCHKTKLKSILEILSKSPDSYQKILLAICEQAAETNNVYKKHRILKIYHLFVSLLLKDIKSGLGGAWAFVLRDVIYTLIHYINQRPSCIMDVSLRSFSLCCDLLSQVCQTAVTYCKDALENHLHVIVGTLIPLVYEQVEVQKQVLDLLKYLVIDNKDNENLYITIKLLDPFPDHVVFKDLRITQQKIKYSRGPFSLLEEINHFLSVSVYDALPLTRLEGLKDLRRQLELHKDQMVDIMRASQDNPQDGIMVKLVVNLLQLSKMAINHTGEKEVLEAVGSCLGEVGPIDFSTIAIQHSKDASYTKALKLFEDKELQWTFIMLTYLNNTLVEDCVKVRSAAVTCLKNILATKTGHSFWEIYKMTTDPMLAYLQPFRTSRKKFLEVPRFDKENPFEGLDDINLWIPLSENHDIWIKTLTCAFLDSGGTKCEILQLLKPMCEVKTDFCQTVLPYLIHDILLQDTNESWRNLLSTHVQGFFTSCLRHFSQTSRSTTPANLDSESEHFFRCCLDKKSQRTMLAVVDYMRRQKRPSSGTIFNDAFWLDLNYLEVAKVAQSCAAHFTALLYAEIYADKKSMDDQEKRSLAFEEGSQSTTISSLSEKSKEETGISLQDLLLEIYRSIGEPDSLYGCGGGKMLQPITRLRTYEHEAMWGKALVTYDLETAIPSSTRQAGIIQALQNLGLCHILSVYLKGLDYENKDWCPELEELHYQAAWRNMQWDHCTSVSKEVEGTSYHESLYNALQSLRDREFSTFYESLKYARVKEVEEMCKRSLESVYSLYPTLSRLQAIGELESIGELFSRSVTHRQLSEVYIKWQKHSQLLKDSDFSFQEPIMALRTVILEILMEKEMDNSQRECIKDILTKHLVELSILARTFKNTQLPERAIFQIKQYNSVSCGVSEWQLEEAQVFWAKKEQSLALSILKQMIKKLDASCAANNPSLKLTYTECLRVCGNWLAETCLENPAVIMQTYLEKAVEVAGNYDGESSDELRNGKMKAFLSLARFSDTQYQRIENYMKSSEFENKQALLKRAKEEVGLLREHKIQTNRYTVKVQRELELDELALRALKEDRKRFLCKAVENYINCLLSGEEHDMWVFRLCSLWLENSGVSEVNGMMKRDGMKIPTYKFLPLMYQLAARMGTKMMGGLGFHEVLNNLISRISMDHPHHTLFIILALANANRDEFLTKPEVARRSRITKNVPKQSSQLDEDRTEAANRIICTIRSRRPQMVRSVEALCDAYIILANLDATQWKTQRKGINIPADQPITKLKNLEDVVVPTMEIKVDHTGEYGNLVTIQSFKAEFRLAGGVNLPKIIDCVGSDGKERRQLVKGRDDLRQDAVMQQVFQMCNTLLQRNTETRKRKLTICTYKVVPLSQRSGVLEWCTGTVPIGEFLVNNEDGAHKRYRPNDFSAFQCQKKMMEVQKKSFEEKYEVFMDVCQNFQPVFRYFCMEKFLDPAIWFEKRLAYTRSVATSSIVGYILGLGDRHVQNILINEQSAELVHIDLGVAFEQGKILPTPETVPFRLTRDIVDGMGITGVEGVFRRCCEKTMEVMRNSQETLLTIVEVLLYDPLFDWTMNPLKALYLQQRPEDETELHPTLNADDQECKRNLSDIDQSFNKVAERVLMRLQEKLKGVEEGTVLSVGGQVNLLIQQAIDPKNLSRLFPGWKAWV

- IC50: 0.09 nM
SMILES: CC(C)n1c(=O)n(C)c2cnc3cc(F)c(-c4ccc(OCCCN5CCCCC5)nc4)cc3c21 [Azd-1390]
